Measured values: the supplement of paper PMC10307832

What was measured:
Experiment in all cases: relative viability (nuclei count vs DMSO), 5 days (fraction); higher = more cells survive
[1] = compound: COc1ccc(-c2ccc3c(N4CCOC[C@@H]4C)nc(N4CCOC[C@@H]4C)nc3n2)cc1CO [AZD8055] + CC(=O)c1c(C)c2cnc(Nc3ccc(N4CCNCC4)cn3)nc2n(C2CCCC2)c1=O [Palbociclib] (partner 0.5 µM)
Procedure, shortened: (§1)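 Medians of duplicate plates are given as relative viability. That measure is the nuclei count in treated wells divided by the count in vehicle wells. Counts were taken on 4× images of lung cancer cell lines in 1536-well plates, 5 days after pin-tool dosing the day after seeding with one drug alone or a fixed anchor-drug dose plus five library-drug doses (not always all listed) in √10 steps.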

[2] = compound: COc1ccc(-c2ccc3c(N4CCOC[C@@H]4C)nc(N4CCOC[C@@H]4C)nc3n2)cc1CO [AZD8055] + Cc1nc(NC(=O)N2CCC[C@H]2C(N)=O)sc1-c1ccnc(C(C)(C)C(F)(F)F)c1 [Alpelisib] (partner 2 µM)
Procedure, shortened: as §1

[3] = compound: COc1ccc(-c2ccc3c(N4CCOC[C@@H]4C)nc(N4CCOC[C@@H]4C)nc3n2)cc1CO [AZD8055] + Nc1nc2[nH]cc(CCc3ccc(C(=O)N[C@@H](CCC(=O)O)C(=O)O)cc3)c2c(=O)[nH]1 [Pemetrexed] (partner 0.2 µM)
Procedure, shortened: as §1

[4] = compound: COc1ccc(-c2ccc3c(N4CCOC[C@@H]4C)nc(N4CCOC[C@@H]4C)nc3n2)cc1CO [AZD8055] + O=C(c1cc(Cc2n[nH]c(=O)c3ccccc23)ccc1F)N1CCN(C(=O)C2CC2)CC1 [Olaparib] (partner 8 µM)
Procedure, shortened: as §1

NCI-H2405
relative viability ([1]; first compound 0.01 µM): 0.51
relative viability ([1]; first compound 0.03162 µM): 0.47
relative viability ([1]; first compound 0.1 µM): 0.384
relative viability ([1]; first compound 0.3162 µM): 0.336
relative viability ([1]; first compound 1 µM): 0.295
relative viability ([2]; first compound 0.01 µM): 0.757
relative viability ([2]; first compound 0.03162 µM): 0.655
relative viability ([2]; first compound 0.1 µM): 0.442
relative viability ([2]; first compound 0.3162 µM): 0.293
relative viability ([2]; first compound 1 µM): 0.291
relative viability ([3]; first compound 0.01 µM): 1.06
relative viability ([3]; first compound 0.03162 µM): 0.987
relative viability ([3]; first compound 0.1 µM): 0.803
relative viability ([3]; first compound 0.3162 µM): 0.34
relative viability ([3]; first compound 1 µM): 0.342
relative viability ([4]; first compound 0.01 µM): 0.904
relative viability ([4]; first compound 0.03162 µM): 0.851
relative viability ([4]; first compound 0.1 µM): 0.772
relative viability ([4]; first compound 0.3162 µM): 0.359
relative viability ([4]; first compound 1 µM): 0.35

NCI-H3122
relative viability ([1]; first compound 0.01 µM): 0.194
relative viability ([1]; first compound 0.03162 µM): 0.197
relative viability ([1]; first compound 0.1 µM): 0.155
relative viability ([1]; first compound 0.3162 µM): 0.147
relative viability ([1]; first compound 1 µM): 0.117
relative viability ([2]; first compound 0.01 µM): 0.737
relative viability ([2]; first compound 0.03162 µM): 0.541
relative viability ([2]; first compound 0.1 µM): 0.34
relative viability ([2]; first compound 0.3162 µM): 0.309
relative viability ([2]; first compound 1 µM): 0.251
relative viability ([3]; first compound 0.01 µM): 0.229
relative viability ([3]; first compound 0.03162 µM): 0.228
relative viability ([3]; first compound 0.1 µM): 0.231
relative viability ([3]; first compound 0.3162 µM): 0.227
relative viability ([3]; first compound 1 µM): 0.225
relative viability ([4]; first compound 0.01 µM): 0.775
relative viability ([4]; first compound 0.03162 µM): 0.697
relative viability ([4]; first compound 0.1 µM): 0.689
relative viability ([4]; first compound 0.3162 µM): 0.338
relative viability ([4]; first compound 1 µM): 0.283

PC-3 [JPC-3]
relative viability ([1]; first compound 0.01 µM): 0.515
relative viability ([1]; first compound 0.03162 µM): 0.557
relative viability ([1]; first compound 0.1 µM): 0.516
relative viability ([1]; first compound 0.3162 µM): 0.435
relative viability ([1]; first compound 1 µM): 0.458
relative viability ([2]; first compound 0.01 µM): 1.17
relative viability ([2]; first compound 0.03162 µM): 1.06
relative viability ([2]; first compound 0.1 µM): 0.972
relative viability ([2]; first compound 0.3162 µM): 0.555
relative viability ([2]; first compound 1 µM): 0.47
relative viability ([3]; first compound 0.01 µM): 1.17
relative viability ([3]; first compound 0.03162 µM): 1.09
relative viability ([3]; first compound 0.1 µM): 0.877
relative viability ([3]; first compound 0.3162 µM): 0.622
relative viability ([3]; first compound 1 µM): 0.454
relative viability ([4]; first compound 0.01 µM): 1.19
relative viability ([4]; first compound 0.03162 µM): 1.26
relative viability ([4]; first compound 0.1 µM): 1.13
relative viability ([4]; first compound 0.3162 µM): 0.798
relative viability ([4]; first compound 1 µM): 0.61

PC-14
relative viability ([1]; first compound 0.01 µM): 0.698
relative viability ([1]; first compound 0.03162 µM): 0.589
relative viability ([1]; first compound 0.1 µM): 0.255
relative viability ([1]; first compound 0.3162 µM): 0.108
relative viability ([1]; first compound 1 µM): 0.12
relative viability ([2]; first compound 0.01 µM): 0.977
relative viability ([2]; first compound 0.03162 µM): 0.913
relative viability ([2]; first compound 0.1 µM): 0.795
relative viability ([2]; first compound 0.3162 µM): 0.316
relative viability ([2]; first compound 1 µM): 0.155
relative viability ([3]; first compound 0.01 µM): 0.153
relative viability ([3]; first compound 0.03162 µM): 0.214
relative viability ([3]; first compound 0.1 µM): 0.178
relative viability ([3]; first compound 0.3162 µM): 0.212
relative viability ([3]; first compound 1 µM): 0.162
relative viability ([4]; first compound 0.01 µM): 0.461
relative viability ([4]; first compound 0.03162 µM): 0.401
relative viability ([4]; first compound 0.1 µM): 0.321
relative viability ([4]; first compound 0.3162 µM): 0.163
relative viability ([4]; first compound 1 µM): 0.142
